Experimental data taken from publication PMC3634352 (Journal of the American Chemical Society, 2013).
pKi: −log10 of the molar value.

Columns and labels:
S. aureus SgtB [1] = molecular target: T1, S. aureus SgtB (Staphylococcus aureus, UniProt Q99T05); type: binding; conditions: for drop in FP (probe displacement) when used instead of moenomycin: detergent controls
T1 sequence (Q99T05 1-269): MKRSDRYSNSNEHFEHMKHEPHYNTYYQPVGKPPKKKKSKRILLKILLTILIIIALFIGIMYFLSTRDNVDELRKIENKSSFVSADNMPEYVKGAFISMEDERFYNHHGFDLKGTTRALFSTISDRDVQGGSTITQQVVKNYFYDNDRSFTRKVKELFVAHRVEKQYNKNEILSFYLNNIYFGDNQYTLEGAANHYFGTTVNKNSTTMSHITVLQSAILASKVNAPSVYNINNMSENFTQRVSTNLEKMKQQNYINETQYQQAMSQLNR

E. coli PBP1b = E. coli PBP1b (Escherichia coli, UniProt P02919); experiment: in vitro PGT inhibition; type: biochemical
S. aureus SgtB [2] = molecular target: T1, S. aureus SgtB; type: biochemical
[3] = background statement; cited from earlier work

Sequence of E. coli PBP1b (P02919 whole entry): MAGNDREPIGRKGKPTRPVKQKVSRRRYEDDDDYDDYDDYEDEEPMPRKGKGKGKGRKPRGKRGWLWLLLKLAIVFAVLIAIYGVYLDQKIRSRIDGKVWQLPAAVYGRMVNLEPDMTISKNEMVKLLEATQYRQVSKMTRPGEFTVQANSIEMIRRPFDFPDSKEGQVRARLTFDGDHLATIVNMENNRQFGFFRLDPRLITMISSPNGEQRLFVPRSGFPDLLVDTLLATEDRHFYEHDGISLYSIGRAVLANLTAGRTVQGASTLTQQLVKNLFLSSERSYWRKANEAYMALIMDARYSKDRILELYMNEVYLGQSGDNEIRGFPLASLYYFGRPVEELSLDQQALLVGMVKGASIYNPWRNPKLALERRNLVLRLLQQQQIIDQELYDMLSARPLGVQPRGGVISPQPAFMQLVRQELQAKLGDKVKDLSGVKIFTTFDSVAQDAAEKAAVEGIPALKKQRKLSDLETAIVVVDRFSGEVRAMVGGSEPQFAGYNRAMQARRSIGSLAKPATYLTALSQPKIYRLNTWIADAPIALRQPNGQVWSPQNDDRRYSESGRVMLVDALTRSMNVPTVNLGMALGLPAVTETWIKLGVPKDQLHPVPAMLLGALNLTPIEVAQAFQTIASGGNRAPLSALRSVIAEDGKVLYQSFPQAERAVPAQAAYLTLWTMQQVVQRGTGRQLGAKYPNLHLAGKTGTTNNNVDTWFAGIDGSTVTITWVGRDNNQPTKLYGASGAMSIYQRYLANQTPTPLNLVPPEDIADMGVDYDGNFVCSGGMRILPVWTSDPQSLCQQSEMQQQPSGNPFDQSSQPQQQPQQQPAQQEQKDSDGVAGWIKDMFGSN

Compound | drop in FP (probe displacement) when used instead of moenomycin (S. aureus SgtB [1]) | inhibition of enzyme (in words) (E. coli PBP1b) | inhibition of enzyme (in words) (S. aureus SgtB [2]) | pKi (S. aureus SgtB [1]; read-out: Ki, displacement of probe 2, probe 2 75 nM, S. aureus SgtB 0.2 μM) | oral bioavailability [3] | serum half life [3]
CCCCCCCCCCCCO[C@@H]1O[C@H](CO)[C@@H](O[C@H]2O[C@H](CO)[C@@H](O)[C@H](O)[C@H]2O)[C@H](O)[C@H]1O [dodecyl maltoside] | no significant drop in FP | – | – | – | – | –
moenomycin A [compound 1] | – | low-nanomolar inhibition | low-nanomolar inhibition | 6.19 | poor oral bioavailability | long serum half life
tween-20 | no significant drop in FP | – | – | – | – | –
